According to PubChem BioAssay AID1963860 (Molecular Pharmacology Branch, DTP, NCI, 2024):

Tested on: CN0375-F725-PDC KRAS spheroid viability
Assay: Anticancer human tumor CN0375-F725-PDC patient-derived colon carcinoma cell line growth inhibition [KRAS2]
Details: spheroids with HUVEC and MSC; for IC50: curve of first compound; for viability, T/C: stronger effect = lower value
Outline: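 KRAS-mutant tumor cells were grown as spheroids with HUVEC endothelial cells and human MSCs as stroma. Targeted agents were tested alone and with KRAS pathway inhibitors. Doses started at or near clinical Cmax, or 10 microM, descending half-log.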

[1] = second compound 0.1 µM, first compound 0.01 µM
[2] = second compound 0.1 µM, first compound 0.0316 µM
[3] = second compound 0.316 µM, first compound 0.01 µM
[4] = second compound 0.316 µM, first compound 0.0316 µM
[5] = second compound 1 µM, first compound 0.01 µM
[6] = second compound 1 µM, first compound 0.0316 µM
[7] = second compound 3.16 µM, first compound 0.01 µM
[8] = second compound 3.16 µM, first compound 0.0316 µM
[9] = second compound 10 µM, first compound 0.01 µM
[10] = second compound 10 µM, first compound 0.0316 µM
[11] = second compound 0.1 µM, first compound 0.1 µM
[12] = second compound 0.1 µM, first compound 0.316 µM
[13] = second compound 0.1 µM, first compound 1 µM
[14] = second compound 0.1 µM, first compound 3.16 µM
[15] = second compound 0.1 µM, first compound 10 µM
[16] = second compound 0.316 µM, first compound 0.1 µM
[17] = second compound 0.316 µM, first compound 0.316 µM
[18] = second compound 0.316 µM, first compound 1 µM
[19] = second compound 0.316 µM, first compound 3.16 µM
[20] = second compound 0.316 µM, first compound 10 µM
[21] = second compound 1 µM, first compound 0.1 µM
[22] = second compound 1 µM, first compound 0.316 µM
[23] = second compound 1 µM, first compound 1 µM
[24] = second compound 1 µM, first compound 3.16 µM
[25] = second compound 1 µM, first compound 10 µM
[26] = second compound 3.16 µM, first compound 0.1 µM
[27] = second compound 3.16 µM, first compound 0.316 µM
[28] = second compound 3.16 µM, first compound 1 µM
[29] = second compound 3.16 µM, first compound 3.16 µM
[30] = second compound 3.16 µM, first compound 10 µM
[31] = second compound 10 µM, first compound 0.1 µM
[32] = second compound 10 µM, first compound 0.316 µM
[33] = second compound 10 µM, first compound 1 µM
[34] = second compound 10 µM, first compound 3.16 µM
[35] = second compound 10 µM, first compound 10 µM
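Note: spheroids exposed to agents for 7 days.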

CC(=O)Nc1cccc(-n2c(=O)n(C3CC3)c(=O)c3c(Nc4ccc(I)cc4F)n(C)c(=O)c(C)c32)c1 + COc1cc2nc(C)nc(NC(C)c3cc(N)cc(C(F)(F)F)c3)c2cc1OC1CCOC1
IC50 (second compound 0.1 µM): 4.1 nM | IC50 (second compound 0.316 µM): 3.26 nM | IC50 (second compound 1 µM): 1.85 nM | IC50 (second compound 3.16 µM): 0.913 nM | IC50 (second compound 10 µM): < 0.1 nM | viability, T/C (second compound 0.1 µM, first compound 0.0001 µM): 88.3% | viability, T/C (second compound 0.1 µM, first compound 0.000316 µM): 85.3% | viability, T/C (second compound 0.1 µM, first compound 0.001 µM): 65% | viability, T/C (second compound 0.1 µM, first compound 0.00316 µM): 51.6% | viability, T/C [1]: 43.9% | viability, T/C [2]: 30.9% | viability, T/C (second compound 0.316 µM, first compound 0.0001 µM): 84.9% | viability, T/C (second compound 0.316 µM, first compound 0.000316 µM): 77.5% | viability, T/C (second compound 0.316 µM, first compound 0.001 µM): 60.7% | viability, T/C (second compound 0.316 µM, first compound 0.00316 µM): 49.7% | viability, T/C [3]: 41.9% | viability, T/C [4]: 31.6% | viability, T/C (second compound 1 µM, first compound 0.0001 µM): 82.6% | viability, T/C (second compound 1 µM, first compound 0.000316 µM): 70.9% | viability, T/C (second compound 1 µM, first compound 0.001 µM): 54.6% | viability, T/C (second compound 1 µM, first compound 0.00316 µM): 44.1% | viability, T/C [5]: 38.4% | viability, T/C [6]: 29.8% | viability, T/C (second compound 3.16 µM, first compound 0.0001 µM): 75.4% | viability, T/C (second compound 3.16 µM, first compound 0.000316 µM): 62.4% | viability, T/C (second compound 3.16 µM, first compound 0.001 µM): 49.3% | viability, T/C (second compound 3.16 µM, first compound 0.00316 µM): 36.4% | viability, T/C [7]: 33.5% | viability, T/C [8]: 25.4% | viability, T/C (second compound 10 µM, first compound 0.0001 µM): 14% | viability, T/C (second compound 10 µM, first compound 0.000316 µM): 13.4% | viability, T/C (second compound 10 µM, first compound 0.001 µM): 9.44% | viability, T/C (second compound 10 µM, first compound 0.00316 µM): 3.96% | viability, T/C [9]: 6.23% | viability, T/C [10]: 1.76%

COc1cc(Nc2ncc3c(n2)-c2ccc(Cl)cc2C(c2c(F)cccc2OC)=NC3)ccc1C(=O)O + CNCc1ccccc1-c1csc(C(C)Nc2nc(C)nc3cc(OC)c(OC)cc23)c1
IC50 (second compound 0.1 µM): > 10000 nM | IC50 (second compound 0.316 µM): > 10000 nM | IC50 (second compound 1 µM): > 10000 nM | IC50 (second compound 3.16 µM): < 31.6 nM | IC50 (second compound 10 µM): < 31.6 nM | viability, T/C [2]: 101% | viability, T/C [11]: 95% | viability, T/C [12]: 93.5% | viability, T/C [13]: 90.8% | viability, T/C [14]: 89% | viability, T/C [15]: 75.9% | viability, T/C [4]: 96.8% | viability, T/C [16]: 93.1% | viability, T/C [17]: 88.4% | viability, T/C [18]: 83.8% | viability, T/C [19]: 87.3% | viability, T/C [20]: 75.7% | viability, T/C [6]: 58.2% | viability, T/C [21]: 54.7% | viability, T/C [22]: 57.5% | viability, T/C [23]: 61% | viability, T/C [24]: 61.7% | viability, T/C [25]: 48.4% | viability, T/C [8]: 0.72% | viability, T/C [26]: 0.93% | viability, T/C [27]: 0.51% | viability, T/C [28]: 0.58% | viability, T/C [29]: 1.16% | viability, T/C [30]: 0.38% | viability, T/C [10]: 0.31% | viability, T/C [31]: 0.48% | viability, T/C [32]: 0.55% | viability, T/C [33]: 0.16% | viability, T/C [34]: 0.24% | viability, T/C [35]: 0.19%

CC1COCCN1c1cc(-c2ccnn2C)c2ccnc(-c3ccn[nH]3)c2n1 (stereo not given) + CC1OCC2(CCN(c3cnc(Sc4ccnc(N)c4Cl)c(N)n3)CC2)C1N
IC50 (second compound 0.1 µM): > 3160 nM | IC50 (second compound 0.316 µM): > 3160 nM | IC50 (second compound 1 µM): > 3160 nM | IC50 (second compound 3.16 µM): 1760 nM | IC50 (second compound 10 µM): 614 nM | viability, T/C [1]: 107% | viability, T/C [2]: 91.7% | viability, T/C [11]: 84.1% | viability, T/C [12]: 77.1% | viability, T/C [13]: 67.5% | viability, T/C [14]: 56.2% | viability, T/C [3]: 90.7% | viability, T/C [4]: 92.8% | viability, T/C [16]: 74.3% | viability, T/C [17]: 72.9% | viability, T/C [18]: 65.1% | viability, T/C [19]: 51.3% | viability, T/C [5]: 88.2% | viability, T/C [6]: 82.7% | viability, T/C [21]: 73.3% | viability, T/C [22]: 70.7% | viability, T/C [23]: 62.1% | viability, T/C [24]: 48.6% | viability, T/C [7]: 81.4% | viability, T/C [8]: 76.8% | viability, T/C [26]: 68.3% | viability, T/C [27]: 59.3% | viability, T/C [28]: 54.2% | viability, T/C [29]: 46.4% | viability, T/C [9]: 69.7% | viability, T/C [10]: 74.8% | viability, T/C [31]: 62.5% | viability, T/C [32]: 53.2% | viability, T/C [33]: 49.2% | viability, T/C [34]: 39.6%

COc1cc(Nc2ncc3c(n2)-c2ccc(Cl)cc2C(c2c(F)cccc2OC)=NC3)ccc1C(=O)O + C=CC(=O)N1CCN(c2nc(=O)n(-c3c(C)ccnc3C(C)C)c3nc(-c4c(O)cccc4F)c(F)cc23)C(C)C1
IC50 (second compound 0.1 µM): > 10000 nM | IC50 (second compound 0.316 µM): > 10000 nM | IC50 (second compound 1 µM): > 10000 nM | IC50 (second compound 3.16 µM): > 10000 nM | IC50 (second compound 10 µM): > 10000 nM | viability, T/C [2]: 105% | viability, T/C [11]: 95.7% | viability, T/C [12]: 89.3% | viability, T/C [13]: 96.5% | viability, T/C [14]: 95.5% | viability, T/C [15]: 80.9% | viability, T/C [4]: 107% | viability, T/C [16]: 104% | viability, T/C [17]: 95% | viability, T/C [18]: 96.5% | viability, T/C [19]: 97% | viability, T/C [20]: 80.5% | viability, T/C [6]: 104% | viability, T/C [21]: 102% | viability, T/C [22]: 97% | viability, T/C [23]: 94.5% | viability, T/C [24]: 94.6% | viability, T/C [25]: 79.4% | viability, T/C [8]: 106% | viability, T/C [26]: 105% | viability, T/C [27]: 97.7% | viability, T/C [28]: 94.2% | viability, T/C [29]: 93.1% | viability, T/C [30]: 85.3% | viability, T/C [10]: 105% | viability, T/C [31]: 102% | viability, T/C [32]: 97.2% | viability, T/C [33]: 88.6% | viability, T/C [34]: 85.7% | viability, T/C [35]: 79.5%

O=C(c1cc(Cc2n[nH]c(=O)c3ccccc23)ccc1F)N1CCN(C(=O)C2CC2)CC1 + CNCc1ccccc1-c1csc(C(C)Nc2nc(C)nc3cc(OC)c(OC)cc23)c1
IC50 (second compound 0.1 µM): > 10000 nM | IC50 (second compound 0.316 µM): > 10000 nM | IC50 (second compound 1 µM): > 10000 nM | IC50 (second compound 3.16 µM): < 31.6 nM | IC50 (second compound 10 µM): < 31.6 nM | viability, T/C [2]: 112% | viability, T/C [11]: 109% | viability, T/C [12]: 100% | viability, T/C [13]: 107% | viability, T/C [14]: 104% | viability, T/C [15]: 95.5% | viability, T/C [4]: 108% | viability, T/C [16]: 105% | viability, T/C [17]: 96.8% | viability, T/C [18]: 92.3% | viability, T/C [19]: 96.9% | viability, T/C [20]: 87.7% | viability, T/C [6]: 96.9% | viability, T/C [21]: 94.8% | viability, T/C [22]: 89.7% | viability, T/C [23]: 81% | viability, T/C [24]: 87.8% | viability, T/C [25]: 79.6% | viability, T/C [8]: 0.68% | viability, T/C [26]: 0.36% | viability, T/C [27]: 0.74% | viability, T/C [28]: 0.33% | viability, T/C [29]: 0.37% | viability, T/C [30]: 0.55% | viability, T/C [10]: 0.64% | viability, T/C [31]: 0.22% | viability, T/C [32]: 0.57% | viability, T/C [33]: 0.37% | viability, T/C [34]: 0.19% | viability, T/C [35]: 0.33%
